The values below come from ChEMBL document CHEMBL1201862, “PubChem BioAssay data set” (2004).

Some test systems named below: CAKI-1; CCRF-CEM; HL-60; HOP-62; HOP-92; HT-29; M14; MDA-N; Malme-3M; NCI-H460; OVCAR-3; OVCAR-5; OVCAR-8; SF-268; SF-295; SK-MEL-5; SN12C; SR; TK-10; U-251.
Common to all, as to assay: growth of human tumour cells (NCI), 48 h

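Dose response: 5 concentrations. Exposure: 48 h. Format: 96-well plates. Endpoint: linear interpolation; highest concentration if not reached. Here, GI50 denotes the concentration required for 50% inhibition of growth.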 Activity calls are given as the source filed them. No stated cut-off is given here; in the data, active = GI50 up to about 1.1 µM and inactive = higher.

On to `COc1cc(/C=C/C(=O)O)ccc1O` [FERULATE], for which the GI50 with CAKI-1, in the test with CCRF-CEM, in the test on HL-60, with HOP-62, in the test with HOP-92 and with HT-29 was > 100 µM (inactive) in each case. Besides, the GI50 in the test with M14, in the test with MDA-N, in the test on Malme-3M, in the test on NCI-H460, in the test with OVCAR-3 and in the test on OVCAR-5 was > 100 µM (inactive) throughout. The GI50 in the test on OVCAR-8, with SF-268, with SF-295, in the test with SK-MEL-5, in the test with SN12C and in the test on SR was > 100 µM (inactive) in each case. The GI50 in the test on TK-10 and in the test with U-251 was > 100 µM (inactive) throughout.

Turning to `C=CCN1C(=O)CC(=O)N(NC2=NNC3(C(=O)N2)c2ccccc2-c2ccccc23)C1=S`, the GI50 in the test on CAKI-1 is 48.3 µM (inactive); in the test on CCRF-CEM, 34 µM (inactive); in the test on HL-60, 27.9 µM (inactive); in the test on HOP-62, 26.7 µM (inactive); in the test with HOP-92 it was 15.4 µM (inactive); with HT-29, 37.9 µM (inactive). For the same compound, the GI50 in the test on M14 was > 100 µM (inactive); in the test with MDA-N it was > 100 µM (inactive); in the test with Malme-3M, 38 µM (inactive); with NCI-H460, 26.1 µM (inactive); in the test with OVCAR-3, 28.4 µM (inactive); in the test with OVCAR-5, 53.7 µM (inactive). In addition, the GI50 is 29.2 µM (inactive) in the test with OVCAR-8; 51.3 µM (inactive) in the test with SF-268; 37 µM (inactive) with SF-295; 31.4 µM (inactive) in the test on SK-MEL-5; 37.2 µM (inactive) in the test with SN12C; 15.6 µM (inactive) in the test on SR. Also, the GI50 with TK-10 was 64.1 µM (inactive); with U-251, 38 µM (inactive).

Take `c1cc2c(c(NC3=NCCO3)c1)CCC2`: the GI50 is > 100 µM (inactive) with CAKI-1; > 100 µM (inactive) with CCRF-CEM; 60.1 µM (inactive) in the test with HL-60; > 100 µM (inactive) in the test with HOP-62; 94.4 µM (inactive) with HOP-92; > 100 µM (inactive) with HT-29. The GI50 with M14 was > 100 µM (inactive); in the test with MDA-N, 84.5 µM (inactive); with Malme-3M, > 100 µM (inactive); in the test on NCI-H460, > 100 µM (inactive); with OVCAR-3, > 100 µM (inactive); with OVCAR-5, > 100 µM (inactive). The GI50 in the test with OVCAR-8 is > 100 µM (inactive); in the test on SF-268, > 100 µM (inactive); with SF-295, > 100 µM (inactive); in the test with SK-MEL-5, > 100 µM (inactive); with SN12C, > 100 µM (inactive); in the test with SR it was 86.5 µM (inactive). For the same compound, the GI50 with TK-10 and in the test on U-251 was > 100 µM (inactive) throughout.

In the case of `CC1C(=O)O[B-]2(c3ccccc3)Oc3ccccc3C=[N+]12` (stereo not given), the GI50 with CAKI-1 is > 100 µM (inactive); with CCRF-CEM, > 100 µM (inactive); in the test with HL-60, 96.4 µM (inactive); in the test on HOP-62, > 100 µM (inactive); in the test with HOP-92 it was 31.3 µM (inactive); with HT-29 it was > 100 µM (inactive). For the same compound, the GI50 in the test with M14, with MDA-N, in the test with Malme-3M, in the test with NCI-H460, in the test with OVCAR-3 and in the test on OVCAR-5 was > 100 µM (inactive) in each case. Moreover, the GI50 in the test on OVCAR-8, with SF-268, in the test with SF-295, in the test with SK-MEL-5, in the test with SN12C and in the test with SR was > 100 µM (inactive) throughout. The GI50 in the test with TK-10 and in the test on U-251 was > 100 µM (inactive) each time.

With `Clc1ccccc1/C=C/c1ccnc2ccccc12`, the GI50 was 16.9 µM (inactive) with CAKI-1; 20.5 µM (inactive) with CCRF-CEM; 19.8 µM (inactive) with HL-60; 16.9 µM (inactive) in the test with HOP-62; 10.2 µM (inactive) with HOP-92; 16 µM (inactive) in the test with HT-29. The GI50 is 17.3 µM (inactive) in the test with M14; 14.6 µM (inactive) in the test with MDA-N; 19.5 µM (inactive) in the test on Malme-3M; 16.2 µM (inactive) in the test with NCI-H460; 14.5 µM (inactive) in the test on OVCAR-3; 19.9 µM (inactive) in the test with OVCAR-5. Further, the GI50 in the test with OVCAR-8 is 18.3 µM (inactive); in the test on SF-268, 18.9 µM (inactive); in the test with SF-295 it was 15.7 µM (inactive); with SK-MEL-5, 15.1 µM (inactive); with SN12C it was 16.4 µM (inactive); in the test on SR, 17 µM (inactive). Moreover, the GI50 with TK-10 is 18 µM (inactive); in the test with U-251, 16.8 µM (inactive).

Consider `O=C(O)c1ccc(NNC(=O)c2cccc3c(=O)c4ccccc4[nH]c23)cc1`, for which the GI50 in the test with CAKI-1 was > 100 µM (inactive); in the test on CCRF-CEM it was 66.2 µM (inactive); in the test with HL-60, 50.8 µM (inactive); in the test with HOP-62, > 100 µM (inactive); in the test on HOP-92, 65 µM (inactive); in the test with HT-29, > 100 µM (inactive). The GI50 is > 100 µM (inactive) in the test on M14; > 100 µM (inactive) with MDA-N; 97.9 µM (inactive) with Malme-3M; 92.9 µM (inactive) in the test with NCI-H460; > 100 µM (inactive) in the test with OVCAR-3; > 100 µM (inactive) with OVCAR-5. The GI50 was > 100 µM (inactive) in the test on OVCAR-8; > 100 µM (inactive) in the test with SF-268; > 100 µM (inactive) with SF-295; 55.5 µM (inactive) in the test on SK-MEL-5; > 100 µM (inactive) in the test on SN12C; 93.5 µM (inactive) in the test with SR. The values for the GI50 in the test with TK-10 and in the test on U-251 were > 100 µM (inactive) and 80.7 µM (inactive), respectively.

`N=C(N)SCc1ccc(Cl)cc1Cl.O=[N+]([O-])c1c(O)c(Cl)cc(Cl)c1Cl`: the GI50 with CAKI-1 was 11 µM (inactive); in the test on CCRF-CEM, 3.18 µM (inactive); with HL-60, 6.04 µM (inactive); in the test with HOP-62, 14.5 µM (inactive); in the test on HOP-92, 11.5 µM (inactive); in the test on HT-29 it was 11 µM (inactive). Further, the GI50 was 11.4 µM (inactive) with M14; 7.46 µM (inactive) in the test on MDA-N; 15.6 µM (inactive) in the test on Malme-3M; 10.6 µM (inactive) with NCI-H460; 13.1 µM (inactive) in the test with OVCAR-3; 16.3 µM (inactive) in the test on OVCAR-5. The GI50 with OVCAR-8 is 24.3 µM (inactive); in the test on SF-268 it was 17 µM (inactive); with SF-295, 13.5 µM (inactive); in the test with SK-MEL-5 it was 15.3 µM (inactive); in the test on SN12C, 11.9 µM (inactive); in the test on SR, 5.21 µM (inactive). For the same compound, the GI50 in the test with TK-10 is 6.18 µM (inactive); with U-251, 14.8 µM (inactive).

In the case of `O=C1CC(=O)NC(NNS(=O)(=O)c2ccc(Cl)cc2)=N1`, the GI50 in the test with CAKI-1 was > 100 µM (inactive); in the test with CCRF-CEM, 63.1 µM (inactive); with HL-60, 70.8 µM (inactive); in the test with HOP-62, > 100 µM (inactive); in the test with HOP-92, > 100 µM (inactive); with HT-29, > 100 µM (inactive). In addition, the GI50 in the test with M14, with MDA-N, with Malme-3M, with NCI-H460, with OVCAR-3 and in the test on OVCAR-5 was > 100 µM (inactive) throughout. Moreover, the GI50 in the test with OVCAR-8, in the test with SF-268, in the test with SF-295, in the test on SK-MEL-5, in the test on SN12C and in the test on SR was > 100 µM (inactive) each time. The GI50 in the test on TK-10 and in the test with U-251 was > 100 µM (inactive) throughout.

`C(#CP(c1ccccc1)c1ccccc1)P(C#CP(c1ccccc1)c1ccccc1)c1ccccc1`: the GI50 in the test on CAKI-1, in the test with CCRF-CEM, in the test with HL-60, with HOP-62, in the test on HOP-92 and in the test with HT-29 was > 100 µM (inactive) throughout. Besides, the GI50 in the test on M14 is 0.798 µM (active); with MDA-N, > 100 µM (inactive); in the test on Malme-3M it was > 100 µM (inactive); in the test with NCI-H460 it was > 100 µM (inactive); in the test with OVCAR-3, > 100 µM (inactive); in the test with OVCAR-5, 1.63 µM (inactive). Moreover, the GI50 is > 100 µM (inactive) with OVCAR-8; > 100 µM (inactive) in the test with SF-268; 5.9 µM (inactive) in the test on SF-295; > 100 µM (inactive) in the test on SK-MEL-5; > 100 µM (inactive) in the test with SN12C; > 100 µM (inactive) in the test with SR. In addition, the GI50 in the test with TK-10 and with U-251 was > 100 µM (inactive) each time.

As for `O=C(c1ccccc1)c1c(C(F)(F)F)[n+]([O-])c2cc(Cl)c(Cl)cc2[n+]1[O-]`, the GI50 in the test on CAKI-1 is 1.58 µM (inactive); in the test on CCRF-CEM, 0.467 µM (active); with HL-60, 0.789 µM (active); in the test with HOP-62 it was 0.357 µM (active); in the test with HOP-92, 7.01 µM (inactive); in the test on HT-29, 0.473 µM (active). The GI50 with M14 is 0.968 µM (active); in the test with MDA-N, 1.79 µM (inactive); in the test on Malme-3M it was 1.72 µM (inactive); in the test with NCI-H460, 1.15 µM (inactive); in the test on OVCAR-3 it was 0.403 µM (active); in the test with OVCAR-5, 1.69 µM (inactive). Also, the GI50 is 2.65 µM (inactive) in the test on OVCAR-8; 0.671 µM (active) in the test with SF-268; 3.21 µM (inactive) in the test on SF-295; 2 µM (inactive) in the test with SK-MEL-5; 0.658 µM (active) in the test with SN12C; 0.175 µM (active) with SR. Moreover, the GI50 was 1.07 µM (active) in the test with TK-10 and 1.23 µM (inactive) in the test on U-251.
